Results from patent US20110230481A2, “DERIVATIVES OF TETRABROMOBENZIMIDAZOLE, A PROCESS FOR THE PREPARATION THEREOF, A PHARMACEUTICAL COMPOSITION COMPRISING THE SAME, A METHOD OF USING THE SAME, A METHOD FOR MODULATING OR REGULATING SERINE/THREONINE KINASES, AND SERINE/THREONINE KINASES MODULATING AGENT” (SELVITA S.A., priority 2009, published 2011).

Columns and labels:
Experiment in all cases: KINOMEscan Max
Type in all cases: binding
PIK3CA(I800L) = target: T1, PIK3CA(I800L) (Homo sapiens, UniProt P42336, I800L)
T1 construct: DNA tag (qPCR read-out)
How it was run: (§1)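 Measures binding, not catalysis: three components (DNA-tagged kinase, immobilized active-site directed ligand, test compound) are combined, and competition is read out by quantitative PCR of the tag.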

JNK3 = target: T2, JNK3 (Homo sapiens, UniProt P53779); details: 1 μM
T2 construct: purchased Ambit Kinomescan (contract panel)
How it was run: as §1

MLK3 = MLK3 (Homo sapiens, UniProt Q16584); details: 1 μM
How it was run: as §1

[1] = target: T3, RPS6KA5(Kin.Dom.2-C-terminal) (Homo sapiens, UniProt O75582)
T3 construct: RPS6KA5(Kin.Dom.2-C-terminal); DNA tag (qPCR read-out)
How it was run: as §1

PIK3C2B = target: T4, PIK3C2B (Homo sapiens, UniProt O00750)
T4 construct: purchased Ambit Kinomescan (contract screening)
How it was run: as §1

EPHA2 = EPHA2 (Homo sapiens, UniProt P29317)
How it was run: as §1

CDK2 = target: T5, CDK2 (Homo sapiens, UniProt P24941); details: 1 μM
T5 construct: purchased Ambit (KINOMEscan Max service)
How it was run: as §1

ULK1 = target: T6, ULK1 (Homo sapiens, UniProt O75385); details: 1 μM
T6 construct: DNA tag (qPCR read-out)
How it was run: as §1

AAK1 = target: T7, AAK1 (Homo sapiens, UniProt Q2M2I8)
T7 construct: purchased Ambit Kinomescan (contract screening)
How it was run: as §1

FGFR4 = target: T8, FGFR4 (Homo sapiens, UniProt P22455)
T8 construct: purchased Ambit (KINOMEscan Max service)
How it was run: as §1

ROCK2 = target: T9, ROCK2 (Homo sapiens, UniProt O75116)
T9 construct: purchased Ambit (KINOMEscan Max service)
How it was run: as §1

TNK2 = target: T10, TNK2 (Homo sapiens, UniProt Q07912)
T10 construct: purchased Ambit Kinomescan (contract screening service)
How it was run: as §1

CSNK1D = target: T11, CSNK1D (Homo sapiens, UniProt P48730)
T11 construct: DNA tag (qPCR read-out); purchased Ambit Kinomescan
How it was run: as §1

MYLK = target: T12, MYLK (Homo sapiens, UniProt Q15746)
T12 construct: purchased Ambit (KINOMEscan Max service)
How it was run: as §1

[2] = target: T13, TYK2(JH1domain-catalytic) (Homo sapiens, UniProt P29597); details: 1 μM
T13 construct: TYK2(JH1domain-catalytic); purchased Ambit Kinomescan (contract screening service)
How it was run: as §1

PAK1 = target: T14, PAK1 (Homo sapiens, UniProt Q13153)
T14 construct: DNA tag (qPCR read-out)
How it was run: as §1

KIT(D816V) = target: T15, KIT(D816V) (Homo sapiens, UniProt P10721, D816V)
T15 construct: purchased Ambit (KINOMEscan Max service)
How it was run: as §1

EGFR = target: T16, EGFR (Homo sapiens, UniProt P00533); details: 1 μM
T16 construct: purchased Ambit (KINOMEscan Max panel service)
How it was run: as §1

EIF2AK1 = target: T17, EIF2AK1 (Homo sapiens, UniProt Q9BQI3)
T17 construct: DNA tag (qPCR read-out)
How it was run: as §1

CDC2L5 = target: T18, CDC2L5 (Homo sapiens, UniProt Q14004); details: 1 μM
T18 construct: DNA tag (qPCR read-out); purchased Ambit Kinomescan
How it was run: as §1

MEK2 = MEK2 (Homo sapiens, UniProt P36507)
How it was run: as §1

SYK = target: T19, SYK (Homo sapiens, UniProt P43405); details: 1 μM
T19 construct: DNA tag (qPCR read-out)
How it was run: as §1

ERBB4 = target: T20, ERBB4 (Homo sapiens, UniProt Q15303)
T20 construct: purchased Ambit Kinomescan (contract panel, KINOMEscan Max)
How it was run: as §1

[3] = target: ABL1(Y253F)-phosphorylated (Homo sapiens, UniProt P00519, Y253F)
How it was run: as §1

CSNK1A1 = target: T21, CSNK1A1 (Homo sapiens, UniProt P48729)
T21 construct: DNA tag (qPCR read-out)
How it was run: as §1

PRKCQ = PRKCQ (Homo sapiens, UniProt Q04759)
How it was run: as §1

[4] = target: T22, TYK2(JH2domain-pseudokinase) (Homo sapiens, UniProt P29597); details: 1 μM
T22 construct: TYK2(JH2domain-pseudokinase); purchased Ambit Kinomescan (contract screening service)
How it was run: as §1

MAK = MAK (Homo sapiens, UniProt P20794)
How it was run: as §1

MAP3K15 = target: T23, MAP3K15 (Homo sapiens, UniProt Q6ZN16)
T23 construct: purchased Ambit Kinomescan (contract panel)
How it was run: as §1

PKN1 = target: T24, PKN1 (Homo sapiens, UniProt Q16512)
T24 construct: DNA tag (qPCR read-out)
How it was run: as §1

INSRR = target: T25, INSRR (Homo sapiens, UniProt P14616)
T25 construct: purchased Ambit Kinomescan (contract panel, KINOMEscan Max)
How it was run: as §1

PRKCD = target: T26, PRKCD (Homo sapiens, UniProt Q05655)
T26 construct: DNA tag (qPCR read-out)
How it was run: as §1

PLK4 = target: T27, PLK4 (Homo sapiens, UniProt O00444)
T27 construct: DNA tag (qPCR read-out)
How it was run: as §1

T13 sequence (P29597 897-1176 limits assumed): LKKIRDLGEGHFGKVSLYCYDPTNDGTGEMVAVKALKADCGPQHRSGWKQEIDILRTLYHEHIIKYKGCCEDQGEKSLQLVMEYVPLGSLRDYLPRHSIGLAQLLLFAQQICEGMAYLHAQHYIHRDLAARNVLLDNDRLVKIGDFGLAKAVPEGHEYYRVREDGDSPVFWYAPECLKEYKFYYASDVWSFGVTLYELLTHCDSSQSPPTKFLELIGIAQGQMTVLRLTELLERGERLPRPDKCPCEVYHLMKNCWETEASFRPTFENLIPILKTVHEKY
T9 sequence (O75116 whole entry): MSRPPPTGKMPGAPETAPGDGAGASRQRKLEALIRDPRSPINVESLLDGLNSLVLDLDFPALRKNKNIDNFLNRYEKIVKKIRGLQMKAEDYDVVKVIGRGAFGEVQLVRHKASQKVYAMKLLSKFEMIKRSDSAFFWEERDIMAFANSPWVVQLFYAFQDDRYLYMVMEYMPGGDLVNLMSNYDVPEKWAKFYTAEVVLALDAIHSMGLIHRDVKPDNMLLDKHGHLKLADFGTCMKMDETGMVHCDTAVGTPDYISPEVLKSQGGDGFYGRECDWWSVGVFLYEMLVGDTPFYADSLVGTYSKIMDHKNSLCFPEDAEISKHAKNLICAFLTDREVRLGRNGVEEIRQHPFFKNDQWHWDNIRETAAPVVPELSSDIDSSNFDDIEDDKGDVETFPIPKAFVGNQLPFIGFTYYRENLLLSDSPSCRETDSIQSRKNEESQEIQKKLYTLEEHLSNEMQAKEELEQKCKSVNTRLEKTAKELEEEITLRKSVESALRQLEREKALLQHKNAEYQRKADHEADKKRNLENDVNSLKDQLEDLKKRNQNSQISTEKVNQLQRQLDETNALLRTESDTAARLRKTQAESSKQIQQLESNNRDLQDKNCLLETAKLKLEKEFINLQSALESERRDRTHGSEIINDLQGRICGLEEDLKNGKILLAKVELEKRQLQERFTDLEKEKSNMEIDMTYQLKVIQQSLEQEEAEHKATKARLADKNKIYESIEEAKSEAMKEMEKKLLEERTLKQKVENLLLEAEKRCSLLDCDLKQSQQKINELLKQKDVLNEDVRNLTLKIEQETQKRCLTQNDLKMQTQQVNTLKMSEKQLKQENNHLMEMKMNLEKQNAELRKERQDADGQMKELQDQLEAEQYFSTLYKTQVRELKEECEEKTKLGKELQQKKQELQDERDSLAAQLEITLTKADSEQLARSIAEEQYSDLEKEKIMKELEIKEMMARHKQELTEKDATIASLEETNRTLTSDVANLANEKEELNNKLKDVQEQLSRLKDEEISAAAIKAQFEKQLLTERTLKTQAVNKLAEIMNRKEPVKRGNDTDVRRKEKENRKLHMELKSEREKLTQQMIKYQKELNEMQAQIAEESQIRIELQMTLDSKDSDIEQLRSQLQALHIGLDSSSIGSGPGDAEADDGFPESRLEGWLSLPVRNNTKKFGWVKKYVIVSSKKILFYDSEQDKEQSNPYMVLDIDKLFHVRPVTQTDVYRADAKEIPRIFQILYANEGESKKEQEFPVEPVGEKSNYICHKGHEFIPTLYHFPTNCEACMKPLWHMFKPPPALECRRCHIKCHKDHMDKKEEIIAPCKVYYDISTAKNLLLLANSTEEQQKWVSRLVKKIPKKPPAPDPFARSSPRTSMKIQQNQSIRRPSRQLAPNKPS
T15 sequence (P10721 26-976 D816V): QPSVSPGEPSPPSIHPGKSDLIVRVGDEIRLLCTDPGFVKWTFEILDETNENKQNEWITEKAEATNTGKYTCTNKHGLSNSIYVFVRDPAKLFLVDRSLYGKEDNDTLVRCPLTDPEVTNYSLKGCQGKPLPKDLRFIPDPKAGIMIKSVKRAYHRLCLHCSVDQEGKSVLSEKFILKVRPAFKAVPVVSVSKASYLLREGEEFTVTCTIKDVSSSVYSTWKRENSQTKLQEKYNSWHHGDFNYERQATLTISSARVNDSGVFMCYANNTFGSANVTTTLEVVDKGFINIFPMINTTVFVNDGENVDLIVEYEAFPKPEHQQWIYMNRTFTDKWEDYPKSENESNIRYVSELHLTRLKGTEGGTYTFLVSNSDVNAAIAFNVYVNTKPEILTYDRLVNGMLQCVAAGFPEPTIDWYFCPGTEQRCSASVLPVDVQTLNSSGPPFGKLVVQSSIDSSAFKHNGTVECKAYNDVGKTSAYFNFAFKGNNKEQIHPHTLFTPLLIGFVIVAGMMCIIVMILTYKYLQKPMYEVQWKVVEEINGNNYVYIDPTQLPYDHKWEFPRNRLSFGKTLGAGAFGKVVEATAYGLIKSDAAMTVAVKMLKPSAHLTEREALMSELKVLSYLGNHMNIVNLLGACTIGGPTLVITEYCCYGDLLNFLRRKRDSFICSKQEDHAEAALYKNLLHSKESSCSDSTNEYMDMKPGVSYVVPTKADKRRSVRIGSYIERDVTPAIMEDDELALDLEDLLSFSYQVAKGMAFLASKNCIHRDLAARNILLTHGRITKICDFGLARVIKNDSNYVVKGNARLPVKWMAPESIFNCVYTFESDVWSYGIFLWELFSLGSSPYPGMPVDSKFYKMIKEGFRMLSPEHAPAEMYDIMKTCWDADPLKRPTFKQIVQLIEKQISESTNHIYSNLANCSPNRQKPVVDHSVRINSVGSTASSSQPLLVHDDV
T18 sequence (Q14004 whole entry): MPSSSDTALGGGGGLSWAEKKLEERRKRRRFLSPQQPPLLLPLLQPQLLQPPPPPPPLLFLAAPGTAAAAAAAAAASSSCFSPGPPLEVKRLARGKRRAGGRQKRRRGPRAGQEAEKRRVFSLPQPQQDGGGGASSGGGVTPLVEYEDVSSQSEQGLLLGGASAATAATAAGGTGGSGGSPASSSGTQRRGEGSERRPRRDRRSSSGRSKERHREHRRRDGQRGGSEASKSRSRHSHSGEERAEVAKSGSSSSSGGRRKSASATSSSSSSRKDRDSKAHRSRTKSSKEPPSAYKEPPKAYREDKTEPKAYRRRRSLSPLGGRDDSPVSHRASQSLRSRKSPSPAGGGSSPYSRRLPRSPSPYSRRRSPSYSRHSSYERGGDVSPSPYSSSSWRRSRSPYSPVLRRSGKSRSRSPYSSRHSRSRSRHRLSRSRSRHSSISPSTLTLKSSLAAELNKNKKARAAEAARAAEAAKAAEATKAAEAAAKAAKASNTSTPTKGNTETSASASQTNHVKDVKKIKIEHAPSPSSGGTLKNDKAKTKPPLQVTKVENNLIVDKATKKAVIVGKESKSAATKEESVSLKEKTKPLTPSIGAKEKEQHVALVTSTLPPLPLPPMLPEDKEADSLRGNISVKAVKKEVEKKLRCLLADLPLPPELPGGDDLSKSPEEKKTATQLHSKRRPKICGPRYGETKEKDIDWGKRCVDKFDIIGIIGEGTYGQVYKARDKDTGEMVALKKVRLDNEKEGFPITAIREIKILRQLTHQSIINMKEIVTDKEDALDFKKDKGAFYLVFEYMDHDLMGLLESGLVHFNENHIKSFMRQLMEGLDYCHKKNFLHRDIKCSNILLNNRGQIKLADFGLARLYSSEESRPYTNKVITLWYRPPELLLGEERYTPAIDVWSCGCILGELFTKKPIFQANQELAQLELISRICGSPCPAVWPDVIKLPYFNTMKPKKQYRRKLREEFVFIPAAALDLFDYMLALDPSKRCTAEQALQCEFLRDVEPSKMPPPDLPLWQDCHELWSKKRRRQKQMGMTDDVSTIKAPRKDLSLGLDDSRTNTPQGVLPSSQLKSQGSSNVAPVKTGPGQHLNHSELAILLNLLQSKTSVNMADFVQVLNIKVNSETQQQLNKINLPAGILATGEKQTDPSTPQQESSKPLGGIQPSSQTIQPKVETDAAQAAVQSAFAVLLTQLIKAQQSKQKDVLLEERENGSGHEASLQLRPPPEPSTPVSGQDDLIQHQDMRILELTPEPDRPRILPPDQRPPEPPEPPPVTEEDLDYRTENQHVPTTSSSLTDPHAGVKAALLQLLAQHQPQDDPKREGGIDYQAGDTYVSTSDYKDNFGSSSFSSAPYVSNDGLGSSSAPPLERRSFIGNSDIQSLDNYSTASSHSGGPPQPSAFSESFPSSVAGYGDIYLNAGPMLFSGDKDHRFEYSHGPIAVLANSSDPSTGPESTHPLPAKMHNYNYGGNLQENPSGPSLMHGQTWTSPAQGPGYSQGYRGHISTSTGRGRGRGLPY
T7 sequence (Q2M2I8 whole entry): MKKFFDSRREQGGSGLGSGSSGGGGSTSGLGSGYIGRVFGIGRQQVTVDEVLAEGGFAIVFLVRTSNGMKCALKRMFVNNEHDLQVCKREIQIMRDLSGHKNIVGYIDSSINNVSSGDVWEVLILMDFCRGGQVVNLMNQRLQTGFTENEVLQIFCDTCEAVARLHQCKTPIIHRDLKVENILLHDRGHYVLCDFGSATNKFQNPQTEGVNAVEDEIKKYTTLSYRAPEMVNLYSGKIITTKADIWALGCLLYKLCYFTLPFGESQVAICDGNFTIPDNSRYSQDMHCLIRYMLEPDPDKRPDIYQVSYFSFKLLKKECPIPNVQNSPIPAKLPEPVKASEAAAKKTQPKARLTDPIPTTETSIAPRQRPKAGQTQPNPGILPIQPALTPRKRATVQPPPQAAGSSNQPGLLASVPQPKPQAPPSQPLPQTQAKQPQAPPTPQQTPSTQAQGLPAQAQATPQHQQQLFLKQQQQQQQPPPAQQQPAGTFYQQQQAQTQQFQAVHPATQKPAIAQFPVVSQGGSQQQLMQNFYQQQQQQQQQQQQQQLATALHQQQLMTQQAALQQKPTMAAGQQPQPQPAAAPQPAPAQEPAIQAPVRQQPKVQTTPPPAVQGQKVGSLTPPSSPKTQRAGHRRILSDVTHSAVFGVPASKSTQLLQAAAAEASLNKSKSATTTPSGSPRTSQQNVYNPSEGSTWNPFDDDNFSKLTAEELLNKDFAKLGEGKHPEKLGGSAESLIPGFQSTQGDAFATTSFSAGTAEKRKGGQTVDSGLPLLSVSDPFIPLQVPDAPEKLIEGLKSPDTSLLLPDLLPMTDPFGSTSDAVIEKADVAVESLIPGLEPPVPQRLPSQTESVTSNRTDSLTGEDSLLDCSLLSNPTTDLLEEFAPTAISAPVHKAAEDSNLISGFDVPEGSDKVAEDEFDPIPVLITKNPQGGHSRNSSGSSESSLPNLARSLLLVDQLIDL

In the case of NCCCNc1nc2c(Br)c(Br)c(Br)c(Br)c2[nH]1 [Compound 11, N-(3-aminopropyl)-4,5,6,7-tetrabromo-1H-benzo[d]imidazol-2-amine], the remaining binding at 1 µM (PIK3CA(I800L)) was 100%, the “% binding” value (JNK3) was 100% and the “% binding” value (MLK3) was 95%. The remaining binding at 1 µM [1] was 100%, the remaining binding at 1 µM (PIK3C2B) was 96% and the remaining binding at 1 µM (EPHA2) was 92%. The “% binding” value (CDK2) was 71%, the “% binding” value (ULK1) was 30% and the remaining binding at 1 µM (AAK1) was 97%. The remaining binding at 1 µM (FGFR4) was 84%, the remaining binding at 1 µM (ROCK2) was 71% and the remaining binding at 1 µM (TNK2) was 100%. For the same compound, the remaining binding at 1 µM (CSNK1D) was 17%, the remaining binding at 1 µM (MYLK) was 58% and the “% binding” value [2] was 100%. The remaining binding at 1 µM (PAK1) was 91%, the remaining binding at 1 µM (KIT(D816V)) was 60% and the “% binding” value (EGFR) was 100%. The remaining binding at 1 µM (EIF2AK1) was 89%, the “% binding” value (CDC2L5) was 24% and the remaining binding at 1 µM (MEK2) was 100%. For the same compound, the “% binding” value (SYK) was 100%, the remaining binding at 1 µM (ERBB4) was 100% and the remaining binding at 1 µM [3] was 100%. The remaining binding at 1 µM (CSNK1A1) was 35%, the remaining binding at 1 µM (PRKCQ) was 77% and the “% binding” value [4] was 100%. The remaining binding at 1 µM (MAK) was 79%, the remaining binding at 1 µM (MAP3K15) was 100% and the remaining binding at 1 µM (PKN1) was 100%. It also gave a remaining binding at 1 µM (INSRR) of 100%, a remaining binding at 1 µM (PRKCD) of 56% and a remaining binding at 1 µM (PLK4) of 100%.
